Where two headings read alike, the source gives them in different places.
How the values were obtained:
[1] = biological target: T1, isomaltase (bakers yeast) (Saccharomyces cerevisiae, UniProt P53051); experiment: isomaltase inhibition, p-nitrophenol glucopyranoside substrate; type: biochemical
T1 construct: purchased Sigma Chemical Company
Procedure: (§1) The enzymes α-glucosidase (yeast), β-glucosidase (almonds), isomaltase (bakers yeast) and α-mannosidase (jackbean) were purchased from Sigma Chemical Company. Glucoamylase was isolated by the present inventors by expressing the gene from Aspergillus awamori in yeast, by methods well known in the art. Enzyme assays were performed by using p-nitrophenol -α (or β)-glucopyranosides as substrate at 37° C. in phosphate buffer (0.05M, pH 6.8) for α (β)-glucosidase and isomaltase, and p-nitrophenol-α-mannopyranoside as substrate at 25° C. in citrate (0.05M, pH 4.5) buffer for α-mannosidase. Glucoamylase was assayed using maltose as substrate at 50° C. in sodium acetate buffer (0.05M, pH 4.5).
(§2) Michaelis-Menten constant, Km, was calculated using software Grafit (Erithacus Software Ltd.). Ki was calculated by plotting K^appm vs. [Inhibitor]. FIG. 2(a) represents a plot of K^appm vs. [Inhibitor], wherein the inhibitor is the monosaccharide sugar analog isofagomin, obtained for five different glycosidases. FIG. 2(b) represents a similar plot of K^appm vs. [Inhibitor], wherein the inhibitor is the disaccharide sugar analog of formula II, obtained for five different glycosidases.

[2] = biological target: β-glucosidase (almonds); experiment: β-glucosidase inhibition, p-nitrophenol-β-glucopyranoside substrate; type: biochemical; conditions: for Ki: 37° C., phosphate buffer 0.05M, pH 6.8, read-out: Ki (inhibition constant), β-Glucosidase; for inhibition of β-glucosidase, in words: hydrochloride
Procedure: as §1, §2

[3] = biological target: T2, Glucoamylase (Aspergillus awamori, UniProt P69327); experiment: glucoamylase inhibition, maltose substrate; type: biochemical
T2 construct: made in house; host or cells: yeast
T2 sequence (P69327 25-640): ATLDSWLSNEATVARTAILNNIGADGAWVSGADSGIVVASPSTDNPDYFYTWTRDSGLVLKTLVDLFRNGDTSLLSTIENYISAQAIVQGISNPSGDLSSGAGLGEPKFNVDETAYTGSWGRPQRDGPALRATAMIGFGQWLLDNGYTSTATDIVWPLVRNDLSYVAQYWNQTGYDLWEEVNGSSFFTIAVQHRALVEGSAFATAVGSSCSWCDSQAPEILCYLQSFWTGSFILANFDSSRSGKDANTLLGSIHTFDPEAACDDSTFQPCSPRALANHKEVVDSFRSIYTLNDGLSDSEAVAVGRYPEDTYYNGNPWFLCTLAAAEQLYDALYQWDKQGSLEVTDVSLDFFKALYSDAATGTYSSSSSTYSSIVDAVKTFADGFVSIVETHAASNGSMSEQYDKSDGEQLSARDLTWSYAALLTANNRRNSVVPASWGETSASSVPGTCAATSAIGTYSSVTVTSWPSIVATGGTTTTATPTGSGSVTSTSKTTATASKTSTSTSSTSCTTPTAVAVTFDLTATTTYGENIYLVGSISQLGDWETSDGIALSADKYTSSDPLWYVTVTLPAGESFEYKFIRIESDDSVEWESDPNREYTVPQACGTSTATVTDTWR
Procedure: as §1
(§3) Michaelis-Menten constant, Km, was calculated using software Grafit (Erithacus Software Ltd.). Ki was calculated by plotting K^appm vs. [Inhibitor]. FIG. 2(a) represents a plot of K^appm vs. [Inhibitor], wherein the inhibitor is the monosaccharide sugar analog isofagomin, obtained for five different glycosidases.

[4] = biological target: T3, α-mannosidase (jackbean) (Canavalia ensiformis, UniProt C0HJB3); experiment: α-mannosidase inhibition, p-nitrophenol-α-mannopyranoside substrate; type: biochemical; conditions: 25° C., citrate buffer 0.05M, pH 4.5; read-out: Ki (inhibition constant), α-Mannosidase
T3 construct: purchased Sigma Chemical Company
T3 sequence (C0HJB3 1-562 limits assumed): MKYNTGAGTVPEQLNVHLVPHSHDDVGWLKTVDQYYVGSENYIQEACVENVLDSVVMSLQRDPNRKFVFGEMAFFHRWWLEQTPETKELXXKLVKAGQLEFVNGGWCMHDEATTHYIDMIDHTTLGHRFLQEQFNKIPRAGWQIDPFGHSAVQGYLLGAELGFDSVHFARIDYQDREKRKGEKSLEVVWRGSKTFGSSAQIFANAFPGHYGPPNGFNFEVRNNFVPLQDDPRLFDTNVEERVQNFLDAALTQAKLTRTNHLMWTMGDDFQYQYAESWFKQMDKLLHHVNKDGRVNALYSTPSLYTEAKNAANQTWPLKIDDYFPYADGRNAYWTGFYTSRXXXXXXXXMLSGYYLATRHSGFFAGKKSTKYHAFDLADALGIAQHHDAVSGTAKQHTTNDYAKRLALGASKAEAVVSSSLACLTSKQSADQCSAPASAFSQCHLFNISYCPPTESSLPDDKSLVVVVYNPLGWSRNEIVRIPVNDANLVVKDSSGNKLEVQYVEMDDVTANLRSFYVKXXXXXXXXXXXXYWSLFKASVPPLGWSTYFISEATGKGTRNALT
T3 sequence (C0HJB3 563-981 limits assumed): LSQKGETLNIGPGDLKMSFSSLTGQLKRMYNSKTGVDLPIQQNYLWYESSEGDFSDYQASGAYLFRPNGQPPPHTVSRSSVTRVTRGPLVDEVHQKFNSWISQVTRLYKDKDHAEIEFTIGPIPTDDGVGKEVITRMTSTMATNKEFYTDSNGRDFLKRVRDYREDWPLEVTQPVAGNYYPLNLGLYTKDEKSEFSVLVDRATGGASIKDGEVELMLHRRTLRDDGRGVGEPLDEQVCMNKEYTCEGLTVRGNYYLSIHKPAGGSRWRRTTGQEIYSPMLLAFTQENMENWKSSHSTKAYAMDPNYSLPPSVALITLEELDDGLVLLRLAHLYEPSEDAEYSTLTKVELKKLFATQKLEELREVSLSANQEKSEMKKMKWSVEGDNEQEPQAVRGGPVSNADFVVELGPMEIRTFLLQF
Procedure: as §1, §3

[5] = in vivo; cited from earlier work
[6] = biological target: T4, lysosomal α-glucosidase (Rattus norvegicus, UniProt Q6P7A9); conditions: cited from earlier work
T4 construct: host or cells: liver (in vivo)
T4 sequence (Q6P7A9 70-953): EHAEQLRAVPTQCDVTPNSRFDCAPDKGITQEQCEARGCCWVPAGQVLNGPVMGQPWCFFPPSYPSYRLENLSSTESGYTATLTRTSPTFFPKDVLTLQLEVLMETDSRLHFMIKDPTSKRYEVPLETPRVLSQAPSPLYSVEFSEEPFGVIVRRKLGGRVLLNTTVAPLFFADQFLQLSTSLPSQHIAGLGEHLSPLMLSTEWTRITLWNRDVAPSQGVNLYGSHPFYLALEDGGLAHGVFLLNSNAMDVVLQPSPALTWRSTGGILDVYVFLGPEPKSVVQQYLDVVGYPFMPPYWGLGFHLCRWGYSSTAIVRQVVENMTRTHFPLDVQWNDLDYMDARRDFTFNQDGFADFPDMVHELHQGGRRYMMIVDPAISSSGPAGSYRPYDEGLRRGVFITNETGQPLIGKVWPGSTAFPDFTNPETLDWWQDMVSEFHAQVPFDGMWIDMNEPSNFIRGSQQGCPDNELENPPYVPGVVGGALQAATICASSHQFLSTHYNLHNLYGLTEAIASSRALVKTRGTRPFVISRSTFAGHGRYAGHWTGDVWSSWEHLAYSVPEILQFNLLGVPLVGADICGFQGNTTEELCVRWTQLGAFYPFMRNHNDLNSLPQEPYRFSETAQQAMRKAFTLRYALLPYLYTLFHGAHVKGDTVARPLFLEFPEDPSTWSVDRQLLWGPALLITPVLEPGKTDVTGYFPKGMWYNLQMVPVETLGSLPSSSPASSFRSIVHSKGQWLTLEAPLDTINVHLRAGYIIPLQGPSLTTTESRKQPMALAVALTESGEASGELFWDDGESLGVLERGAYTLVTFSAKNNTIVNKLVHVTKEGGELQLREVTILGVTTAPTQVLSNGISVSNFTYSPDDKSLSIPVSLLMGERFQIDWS

[7] = tested on: cellulase degradation of wood; experiment: wood treatment, cellulase degradation; conditions: approximately 10 mg/kg of wood per day, several months of treatment
Procedure: A wood treatment composition containing approximately 10 mg/kg of wood per day of isofagomin is administered to a piece of wood. After several months of treatment, the piece of wood is analyzed.

[8] = biological target: T5, α-glucosidase (yeast) (Saccharomyces cerevisiae, UniProt P53341); experiment: α-glucosidase inhibition, p-nitrophenol-α-glucopyranoside substrate; type: biochemical; conditions: 37° C., phosphate buffer 0.05M, pH 6.8; read-out: Ki (inhibition constant), α-Glucosidase
T5 construct: purchased Sigma Chemical Company
T5 sequence (P53341 whole entry): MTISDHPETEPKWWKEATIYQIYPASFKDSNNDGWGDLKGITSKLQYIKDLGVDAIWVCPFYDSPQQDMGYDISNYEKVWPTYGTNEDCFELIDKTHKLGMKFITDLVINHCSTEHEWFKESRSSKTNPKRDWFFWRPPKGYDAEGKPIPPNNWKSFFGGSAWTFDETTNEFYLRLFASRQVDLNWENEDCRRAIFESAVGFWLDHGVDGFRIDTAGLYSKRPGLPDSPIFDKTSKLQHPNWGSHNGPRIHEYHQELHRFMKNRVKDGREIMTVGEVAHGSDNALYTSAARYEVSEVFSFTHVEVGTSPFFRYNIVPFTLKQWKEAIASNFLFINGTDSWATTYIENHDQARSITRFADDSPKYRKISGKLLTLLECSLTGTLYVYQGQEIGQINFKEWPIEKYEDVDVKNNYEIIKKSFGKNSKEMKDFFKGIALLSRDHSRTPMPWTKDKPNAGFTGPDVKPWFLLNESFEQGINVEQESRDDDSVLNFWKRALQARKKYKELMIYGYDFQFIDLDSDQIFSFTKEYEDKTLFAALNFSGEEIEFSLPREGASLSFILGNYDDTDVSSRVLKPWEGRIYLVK
Procedure: as §1, §3

[9] = tested on: glycohydrolase degradation of crop; experiment: agricultural crop treatment, glycohydrolase degradation; conditions: approximately 10 mg/kg of crop per day, several months of treatment
Procedure: A composition for treating agricultural crops containing approximately 10 mg/kg of crop per day of isofagomin is administered to a crop. After several months of treatment, the crop is analyzed.

[10] = maltose substrate, 50° C., sodium acetate buffer 0.05M, pH 4.5, read-out: Ki (inhibition constant), Glucoamylase
[11] = 37° C., phosphate buffer 0.05M, pH 6.8, read-out: Ki (inhibition constant), Isomaltase

T1 sequence (P53051 whole entry): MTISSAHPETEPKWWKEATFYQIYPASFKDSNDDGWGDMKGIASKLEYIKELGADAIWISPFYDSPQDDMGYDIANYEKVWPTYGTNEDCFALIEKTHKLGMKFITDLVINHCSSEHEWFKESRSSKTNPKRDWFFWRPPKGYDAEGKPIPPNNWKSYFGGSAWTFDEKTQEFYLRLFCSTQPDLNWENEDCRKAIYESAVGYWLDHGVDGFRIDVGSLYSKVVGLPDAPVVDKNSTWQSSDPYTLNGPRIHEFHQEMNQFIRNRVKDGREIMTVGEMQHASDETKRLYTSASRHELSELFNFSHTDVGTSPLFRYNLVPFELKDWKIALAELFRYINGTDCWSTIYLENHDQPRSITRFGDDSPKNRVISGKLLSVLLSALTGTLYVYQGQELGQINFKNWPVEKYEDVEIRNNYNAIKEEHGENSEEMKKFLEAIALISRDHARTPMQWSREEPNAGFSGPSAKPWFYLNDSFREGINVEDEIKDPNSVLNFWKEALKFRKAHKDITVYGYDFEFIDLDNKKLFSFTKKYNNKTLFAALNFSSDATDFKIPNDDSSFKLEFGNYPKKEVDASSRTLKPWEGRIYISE

Compound `OC[C@H]1NC[C@H](O)[C@@H](O)[C@@H]1O` [Deoxynojirimycin, reference compound] has a Ki [1] of 11.2 µM, a Ki [2] of […] and a Ki [3, 10] of 9.8 µM.

In the case of `C[C@H]1O[C@H](O[C@H]2[C@H](O)[C@@H](O)[C@@H](O[C@H]3[C@H](O)[C@@H](O)C(O)O[C@@H]3CO)O[C@@H]2CO)[C@H](O)[C@@H](O)[C@@H]1N[C@H]1C=C(CO)[C@@H](O)[C@H](O)[C@H]1O` (stereo partly shown) [Acarbose, acarbose, reference compound], the Ki [1] is reported as > 100 µM and the Ki [4] is reported as 7600 µM.

In the case of `O[C@H]1[C@H](O)[C@@H](O)CN2CC[C@H](O)[C@H]12` [Castanospermine], the “minimum effective dose required to reduce the glycemic response to sucrose” value [5] is given as 1 mg/kg and the “accumulation of lysosomal glycogen” value ([6]; at the minimum effective dose (1 mg/kg)) is given as “Accumulation of lysosomal glycogen has been found”.

With `Cl.OC[C@H]1CNC[C@@H](O)[C@@H]1O` [MB, (3R,4R,5R)-3,4-dihydroxy-5-hydroxymethyl-piperidine hydrochloride] the Ki [1, 11] was 7.2 µM, the Ki [4] was 775 µM and the “cellulase degradation of treated wood” value [7] was “No cellulase degradation is detected”. The Ki [8] was 85.9 µM, the Ki [2] was 0.11 µM and the “mode of inhibition of β-glucosidase (Lineweaver-Burk plot)” value ([2]; FIG. 1(a), three inhibitor concentrations) was “competitive inhibition”. The “inhibition of β-glucosidase, in words” value [2] was “surprisingly strong inhibitor”, the “inhibition of β-glucosidase, in words” value ([2]; listed as monosaccharide analog) was “particularly strong inhibitor” and the “glycohydrolase degradation of treated crop” value [9] was “No glycohydrolase degradation is detected”. The Ki [3, 10] was 3.7 µM.

In the case of `CO[C@H]1O[C@H](CCN2C[C@H](CO)[C@@H](O)[C@H](O)C2)[C@@H](O)[C@H](O)[C@H]1O` [TMJ, Methyl 6,7-dideoxy-7-[(3R,4R,5R)-3,4-dihydroxy-5-hydroxymethyl-piperidinyl]-α-D-gluco-heptopyranoside], the Ki [1, 11] is reported as 103 µM, the Ki [4] is reported as 1230 µM and the Ki [8] is reported as 58.8 µM. The Ki [3] was 0.063 µM.

In the case of `CO[C@H]1O[C@H](CN2C[C@H](O)[C@@H](O)[C@H](O)[C@H]2CO)[C@@H](O)[C@H](O)[C@H]1O` [MDL, 1,5-dideoxy-1,5-[(6-deoxy-1-O-methyl-6-α,D-glucopyranosyl)imino]-D-glucitol], the “effect on liver lysosomal α-glucosidase activity or glycogen accumulation” value ([6]; dose 10-fold higher than required to reduce the glycemic response to sucrose) is given as “did not affect”.

`OC[C@H]1NC[C@@H](O)[C@@H](O)[C@@H]1O` [Deoxymannojirimycin, reference compound] gave a Ki [1] of 49.3 µM, a Ki [2] of […] and a Ki [3, 10] of 66 µM.

Reference: US5844102A, “Glycohydrolase inhibitors, their preparation and use thereof” (University of Maryland Baltimore County, priority 1994, dated 1998)
